Laboratory results reported in PMC5986797, “Laminin heparin-binding peptides bind to several growth factors and enhance diabetic wound healing” (Nature Communications, 2018).
Entries after “also recorded” stand apart in the source; their conditions may differ.

Experiments:
[1] = ELISA: biotinylated heparin binding to laminin peptides; design: key to Interaction with Heparin: ++ indicates high affinities; + indicates medium/low affinities; conditions: for binding to heparin (ELISA): 10 µg/mL laminin peptide coated (legend; method 1 μg/mL), 10 µg/mL biotinylated heparin, vs BSA-coated wells, n = 4; for Interaction with Heparin: summary table
Description: (§1) ELISA tests were performed as described above. In brief, […] recombinant protein, laminin alpha 4 LG domain recombinant protein (R&D Systems), laminin alpha 5 LG domain recombinant protein (LD BioPharma), or laminin peptide (sequences are described in Supplementary Table 1, chemically synthesized by Genscript) in PBS for 2 h at 37 °C. A concentration of 1 μg/mL of BSA served as non-binding protein control. After blocking with 2% BSA PBS-0.05% Tween 20 (PBS-T) solution, 1 μg/mL of the recombinant human proteins (VEGF-A121, VEGF-A165, PlGF-1, PlGF-2, PDGF-BB, or FGF-2) or 10 μg/mL of biotinylated heparin (Sigma-Aldrich) were added. Bound GF was detected with biotinylated antibodies for human VEGF-A, PlGF, PDGF-BB (R&D Systems, Catalog No. DY220, 1:180 dilution), or FGF-2 (R&D Systems). The antibodies were detected by streptavidin-HRP (R&D Systems).

[2] = system: recombinant human syndecan-1, syndecan-2, syndecan-3, and syndecan-4; assay: ELISA: syndecan binding to laminin peptides; design: key to Interaction with Syndecan: ++ indicates high affinities; + indicates medium/low affinities; conditions: for binding to syndecans 1–4 (ELISA): 10 µg/mL laminin peptide coated (legend; method 1 μg/mL), 1 μg/mL histidine-tagged syndecan, vs BSA-coated wells, n = 8; for Interaction with Syndecan: summary table
Description: ELISA tests were performed as described above. […] A concentration of 1 μg/mL of BSA served as non-binding protein control. After blocking with 2% BSA PBS-T solution, 1 μg/mL of the recombinant human syndecan-1, syndecan-2, syndecan-3, and syndecan-4 (all syndecan proteins are histidine-tagged; SinoBiological) were added. Bound GF was detected with anti-histidine tag antibody (BioLegend, Catalog No. 562504, 1:1000 dilution).

GF [3] = assay: ELISA: GF binding to laminin peptides, stated for the tested GFs together; design: species or system human; conditions: 10 µg/mL laminin peptide coated, 1 μg/mL GF, n = 4
VEGF-A165 = assay: ELISA: VEGF-A165 binding to laminin LG domain / laminin peptide; design: species or system human; conditions: 10 µg/mL laminin peptide coated (legend; method 1 μg/mL); 1 μg/mL GF; vs BSA-coated wells; n = 4
Description: as §1

PlGF-2 [4] = assay: ELISA: PlGF-2 binding to laminin LG domain / laminin peptide; design: species or system human; conditions: 10 µg/mL laminin peptide coated (legend; method 1 μg/mL); 1 μg/mL GF; vs BSA-coated wells; n = 4
Description: (§2) ELISA tests were performed as described above. In brief, ELISA plates were coated with 1 μg/mL of laminin alpha 3 LG domain recombinant protein, laminin alpha 4 LG domain recombinant protein (R&D Systems), laminin alpha 5 LG domain recombinant protein (LD BioPharma), or laminin peptide (sequences are described in Supplementary Table 1, chemically synthesized by Genscript) in PBS for 2 h at 37 °C. A concentration of 1 μg/mL of BSA served as non-binding protein control. After blocking with 2% BSA PBS-0.05% Tween 20 (PBS-T) solution, 1 μg/mL of the recombinant human proteins (VEGF-A121, VEGF-A165, PlGF-1, PlGF-2, PDGF-BB, or FGF-2) or 10 μg/mL of biotinylated heparin (Sigma-Aldrich) were added. Bound GF was detected with biotinylated antibodies for human VEGF-A, PlGF, PDGF-BB (R&D Systems, Catalog No. DY220, 1:180 dilution), or FGF-2 (R&D Systems). The antibodies were detected by streptavidin-HRP (R&D Systems).

PDGF-BB [5] = assay: ELISA: PDGF-BB binding to laminin LG domain / laminin peptide; design: species or system human; conditions: 10 µg/mL laminin peptide coated (legend; method 1 μg/mL); 1 μg/mL GF; vs BSA-coated wells; n = 4
Description: as §2

FGF-2 = assay: ELISA: FGF-2 binding to laminin LG domain / laminin peptide; design: species or system human; conditions: 10 µg/mL laminin peptide coated (legend; method 1 μg/mL); 1 μg/mL GF; vs BSA-coated wells; n = 4
Description: as §2

GF [6] = assay: ELISA: GF binding to laminin peptides, stated for the tested GFs together; design: species or system human; key: ++ indicates high affinities; + indicates medium/low affinities; conditions: summary table
Description: as §2

human lung fibroblasts = assay: Cell adhesion assay, fibroblasts; assay type: cell-based; design: key to Cell adhesion Fibroblast: ++ indicates high affinities; + indicates medium/low affinities; conditions: for Cell adhesion Fibroblast: summary table; for fibroblast attachment on peptide-coated surfaces: without EDTA, 1 μg/mL peptide coated, 3000 cells/well, 30 min, 37 °C, FGM-2, 1% FBS, CyQUANT, vs BSA, n = 10
Description: (§3) A total of 96-well plates (non-tissue culture treated, Greiner Bio-One) were pre-coated with 1 μg/mL with laminin HBD peptides in PBS for 2 h at 37 °C, followed by blocking with 2% BSA PBS for 1 h at RT. Cell adhesion assays were performed using human lung fibroblasts (Lonza) in FGM-2 medium (Lonza) or human umbilical vein endothelial cells (HUVEC; Lonza) in EGM-2 medium (Lonza) supplemented with 1% fetal bovine serum (FBS) and 100 µg/mL VEGF-A165, with or without 5 mM EDTA (Sigma-Aldrich). Cells were plated at 3000 cells/well on laminin peptide pre-coated plates and incubated for 30 min at 37 °C, 5% CO2. Then, the medium was removed, and wells were quickly washed three times with PBS. Cell numbers were quantified using a CyQUANT assay, according to the manufacturer’s instructions (Invitrogen). All cell lines were checked for mycoplasma contamination and used in passages from 5 to 8.

[7] = system: human umbilical vein endothelial cells (HUVEC); assay: Cell adhesion assay, HUVEC; assay type: cell-based; design: key to Cell adhesion HUVEC: ++ indicates high affinities; + indicates medium/low affinities
Description: as §3, with “Cell adhesion assays were performed using human lung fibroblasts (Lonza) in FGM-2 medium (Lonza) or human umbilical vein endothelial cells (HUVEC; Lonza) in EGM-2 medium (Lonza) supplemented with 1% fetal bovine serum (FBS) and 100 µg/mL VEGF-A165, with or without 5 mM EDTA (Sigma-Aldrich).” left out

HUVEC cells = assay: Migration assay (transwell); assay type: cell-based, human; conditions: 0.1 μM peptide, in the presence and absence of 30 ng/mL VEGF-A165; 6 h; n = 4
Description: A QCM 24-Well Colorimetric Cell Migration Assay Kit was used to perform migration assay. Both sides of inserts were coated with 0.1 μM of bovine collagen I (C4243, Sigma-Aldrich) for 1 h at 37 °C. Then, the inserts were washed with water, dried in a laminar flow cabinet, and disposed on 24-well cell culture plate covers. Solutions containing 30 ng/mL of VEGF-A165 preincubated with or without 0.1 μM of LAMA3_3043–3067 peptide in a medium (MCDB-131, 0.05% BSA) were added to the bottom side of the transwell (500 μL/well). Directly thereafter, HUVEC cells (Lonza) in a medium containing 0.05% BSA (300 μL/transwell, 4 × 10^4 cells/transwell) were added to the transwell upper parts. After 6 h, migrated cells were stained and absorbance at 560 nm was measured according to the manufacturer’s instructions.

[8] = system: GF (VEGF-A165, PlGF-2, FGF-2) binding to laminin; assay: Inhibition of laminin–GF binding by heparin (ELISA); design: species or system human; conditions: 10 µM heparin; 10 µg/mL laminin coated; 1 μg/mL VEGF-A165, PlGF-2 or FGF-2; n = 4
Description: ELISA plates (med-binding) were coated with 10 μg/mL laminin isoforms (–111, –211, –221, –411, –421, –511, and –521) in PBS for 2 h at 37 °C. Then, wells were blocked with 2% BSA-containing PBS-T and further incubated with 1 μg/mL each of VEGF-A165, PlGF-2, or FGF-2 for 60 min at RT with 10 μM heparin. Next, the wells were incubated with biotinylated anti-VEGF (R&D Systems, Catalog No. DY293B, 1:60 dilution), anti-PlGF (R&D Systems, Catalog No. DY264, 1:180 dilution), or anti-FGF-2 (R&D Systems, Catalog No. DY233, 1:60 dilution) antibodies. The antibodies were detected by streptavidin-HRP (R&D Systems).

PlGF-2 [9] = assay: SPR: laminin-521 against PlGF-2; assay type: binding, human; conditions: laminin-521 immobilized (~2000 RU) on C1 chip, GF flown over, Langmuir fit
Description: (§4) SPR measurements were made with a Biacore 3000 SPR system (GE Healthcare). Laminin-521 or laminin LAMA3_2928–3150 was immobilized via amine coupling on a C1 chip (GE Healthcare) for ~2000 or ~1000 resonance units (RU), respectively, according to the manufacturer’s instructions. VEGF-A165, PDGF-BB, or PlGF-2 was flown at increasing concentrations in the running buffer (0.01 M HEPES, pH 7.4, 0.15 M NaCl, and 0.005% v/v surfactant P20) at 20 μL/min. The sensor chip was regenerated with 50 mM NaOH for every cycle. Specific bindings of GFs to laminin were calculated by comparison to a non-functionalized channel used as a reference. Experimental results were fitted with Langmuir binding kinetics using BIAevaluation software (GE Healthcare).

PDGF-BB [10] = assay: SPR: laminin-521 against PDGF-BB; assay type: binding, human; conditions: laminin-521 immobilized (~2000 RU) on C1 chip, GF flown over, Langmuir fit
Description: as §4

binding to heparin (ELISA) [1] | binding to syndecans 1–4 (ELISA) [2] | Interaction with Syndecan [2] | Interaction with Heparin [1] | binding to VEGF-A165 (ELISA), peptides (VEGF-A165) | binding to PlGF-2 (ELISA), peptides (PlGF-2 [4]) | binding to PDGF-BB (ELISA), peptides (PDGF-BB [5]) | binding to FGF-2 (ELISA), peptides (FGF-2) | Interaction with GF (GF [6]) | Substance | binding to the tested GFs (ELISA) (GF [3]) | Cell adhesion Fibroblast (human lung fibroblasts) | fibroblast attachment on peptide-coated surfaces (human lung fibroblasts) | also measured
did not bind to heparin | weak binding | + |  |  |  |  |  |  | ARKASRRSRQPARH [LAMA5_3312–3325, chemically synthesized human laminin LAMA5 linker peptide, 14 aa, subdomain of LAMA5_3300–3330] | did not show particular binding to any tested GF |  |  | 
bound to heparin | significant binding | ++ | ++ | bound | bound | bound | bound | ++ | RLVFALGTDGKKLRIKSKEKCNDGK [LAMA3_3043–3067, chemically synthesized human laminin LAMA3 LG4 HBD peptide, 25 aa] |  | ++ | enhancement of fibroblast attachment | HUVEC attachment in the presence of EDTA ([7]; 5 mM EDTA, 1 μg/mL peptide coated, 3000 cells/well, 30 min, 37 °C, CyQUANT, n = 10): even in the presence of EDTA; Cell adhesion HUVEC ([7]; summary table): ++; HUVEC attachment on peptide-coated surfaces ([7]; without EDTA, 1 μg/mL peptide coated, 3000 cells/well, 30 min, 37 °C, 100 ng/mL VEGF-A165, 1% FBS, CyQUANT, n = 10): promoted HUVEC attachment; degree of migration of HUVEC cells, peptide (HUVEC cells): did not increase the degree of cell migration
bound to heparin | significant binding | ++ | ++ | bound | bound | bound | bound | ++ | RQRSRPGRWHKVSVRWEKNR [LAMA5_3417–3436, chemically synthesized human laminin LAMA5 LG4 peptide, 20 aa] |  | + | enhancement of fibroblast attachment | 
 |  |  |  |  |  |  |  |  | heparin |  |  |  | inhibition of GF binding to laminin by excess heparin [8]: inhibited
 |  |  |  |  |  |  |  |  | laminin-521: recombinant human full-length laminin isoform (BioLamina) |  |  |  | Kd (PlGF-2 [9]): 0.0129 µM; Kd (PDGF-BB [10]): 0.0242 µM

Substance | binding to heparin (ELISA) [1] | binding to syndecans 1–4 (ELISA) [2] | Interaction with Syndecan [2] | Interaction with Heparin [1] | binding to VEGF-A165 (ELISA), peptides (VEGF-A165) | binding to PlGF-2 (ELISA), peptides (PlGF-2 [4]) | binding to PDGF-BB (ELISA), peptides (PDGF-BB [5]) | binding to FGF-2 (ELISA), peptides (FGF-2) | Interaction with GF (GF [6]) | binding to the tested GFs (ELISA) (GF [3]) | Cell adhesion Fibroblast (human lung fibroblasts) | fibroblast attachment on peptide-coated surfaces (human lung fibroblasts) | also measured
TLPDVGLELEVR [LAMA5_3539–3550, chemically synthesized human laminin LAMA5 LG5 peptide, 12 aa] | did not show binding to heparin; also recorded: do not show heparin binding | did not show binding |  |  |  |  |  |  | + | significantly bound to all tested GFs |  |  | 
